Measured values as given in US7989495B2, “Compositions and methods for inhibiting NF-κB mediated tumorigenicity and adhesion dependent survival of cancer cells” (University of Utah Research Foundation, priority 2002, dated 2011).
“And” between values parts separate entries of the source, which are not always exact repeats. Equal entries are not always repeated.

Tests used:
[1] = test system: HT-29 colon cancer cell line; test: Cell proliferation assay (crystal violet, 590 nm); format: cell-based; conditions: 10 μM, cultured 8 days
Protocol: DLD-1, HCT-116, and HT-29 colon cancer cell lines were obtained from the ATCC collection and were cultured in Dulbecco's Modification of Eagle's Medium supplemented with 10% fetal bovine serum, glutamine, penicillin, and streptomycin. 293 cells stably transfected with COX-2 (293-COX-2) under the control of a ponasterone sensitive promoter were cultured in Dulbecco's Modification of Eagle's Medium supplemented with 10% fetal bovine serum, 400 μg/ml of zeocin, 400 μg/ml of G418, glutamine, penicillin, and streptomycin. For induction of COX-2 protein expression, 293-COX-2 cells were cultured for 48 hours in media supplemented with 1 μg/ml of ponasterone. All cells were cultured at 37° C. in a humidified incubator with a 5% CO2 atmosphere.
For the cell proliferation assay, cells were dispersed and plated at 40,000 cells/well in 96-well dishes. At various days in culture, the cells were gently washed twice with 100 μl/well of ice-cold blocking buffer (1% radioimmunoassay grade BSA in PBS) and twice with 100 μl/well of ice-cold PBS. The cells were fixed for 10 min in 100% ice-cold methanol (100 μl/well), then allowed to air-dry. The cells were stained with 100μl/well of 0.1% crystal violet in H2O for 10 minutes, then washed gently four times with dd H20 and four times with PBS. The plates were then air-dried completely. The stained cells were then solubilized in 1% sodium deoxycholate, and the plates read at 590 nm in a spectrophotometer. The absorption at 590 nm is proportional to the number of attached cells.

[2] = test system: transiently suspended Caco-2 cells; test: Apoptosis (annexin V) of transiently suspended cells allowed to readhere; format: cell-based; conditions: treated
Protocol: Single cell suspensions were plated at 100,000 cells per well in 24-well plates in media containing DMSO, BAY 11-7082, BAY 11-7085, or MG-132 for 8-24 hours in an incubator. Alternatively, DMSO, BAY 11-7082, BAY 11-7085, or MG-132 were added to cells that were confluent and adherent for several days. The nonadherent cells were aspirated off with the media and spun for 3 minutes at 2,000 rpm in 15 ml polypropylene tubes. The adherent cells were washed twice with PBS, dispersed in trypsin, and spun down for 3 minutes at 2,000 rpm in 15 ml polypropylene tubes. The nonadherent and adherent cells were resuspended in 1× binding buffer (10 mM HEPES/NaOH, pH 7.4, 140 mM NaCl, and 2.5 mM CaCl2) to a final concentration of 10^6 cells/ml. […] 400 μl of binding buffer was added to each tube and the cells were analyzed by flow cytometry immediately. The percent of apoptosis was determined as the percent of annexin V-positive, propidium iodide-negative cells of the total cells counted.
Since trypsin can activate protease-activated receptor-2 in colon cancer cell lines, which then results in increased cell proliferation, (Darmoul et al., 2001) NF-κB activation was determined in adherent and confluent DLD-1, HCT-116, Caco-2 and HT-29 cells that were removed from plastic dishes by trypsin or scraping. […]

[3] = test system: HCT-116 cells injected intraperitoneally; test: Intraabdominal seeding (metastasis) model in athymic mice; format: in vivo; conditions: HCT-116 intraperitoneal; pretreated, then twice weekly; after 21 days
Excerpt: (§1) FIGS. 6A, B, C show tumor implants of the liver of three athymic mice 21 days after receiving intraperitoneal injections of HT-29 cells. The mice were pretreated and treated for a total of 21 days with DMSO twice weekly. […] The mouse was pretreated and treated for a total of 21 days with DMSO twice weekly. […] This section was obtained from the tumor implant from the mouse in FIG. 6A. […] FIG. 6G, (liver), FIG. 6H, (abdominal wall), and FIG. 6I, (intestinal) show tumor implants in three athymic mice 21 days after receiving intraabdominal injections of HCT-116 cells. All of the mice were treated with 5 mg/kg of BAY 11-7085 twice weekly.
(§2) HT-29 and HCT-116 cells were harvested in 0.25% trypsin-PBS-EDTA, washed once in media and PBS, and resuspended in PBS at 1 million cells per 200 μL. One million cells were injected either subcutaneously in the backs or intraperitoneally in 5 week old female nu/nu athymic mice (Charles River Labs). For the mice with subcutaneous tumors, the tumors were allowed to establish themselves for 10 days after which they were randomized to BAY 11-7085 or DMSO. For the mice with intraperitoneal tumors, the mice received DMSO or BAY 11-7085 (5 mg/kg) 24 hours before the cancer cells were injected intrapentoneally. All mice received BAY 11-7085 (5 mg/kg) or an equal volume of DMSO (˜200 μL) twice weekly for 21-32 days. Subcutaneous tumor sizes were determined by measuring the length and width with calipers. These studies were approved by the U. of Utah Institutional Review Board and Institutional Animal Care and Use Committee and performed in the Animal Resource Center. Mice were euthanized when they experienced a greater than 10% loss in body weight or if they appeared ill. […]
(§3) Since BAY 11-7085 induced apoptosis of readherent HT-29 cells, an in vivo model was used to test the ability of the drug to prevent metastasis by seeding of intraabdominal tissue with colon cancer cells. […] Seeding results from the transient suspension of cancer cells, through a loss of adhesion either naturally ro because of surgical displacement, followed by readhesion to other tissues. […]

[4] = test system: HT-29 cells injected intraperitoneally; test: as above; format: in vivo; conditions: HT-29 intraperitoneal; pretreated 24 hours earlier, then twice weekly, 21 days; n = 6
Excerpt: as §1, §2, §3

Compound: CC(C)(C)c1ccc(S(=O)(=O)/C=C/C#N)cc1 [BAY 11-7085, (2E)-3-[4-(tertiarybutylphenyl)sulfonyl]-2-propenenitrile]
- inhibition of cell proliferation [1]: greatly inhibited cell proliferation
- BAY 11-7085-induced apoptosis during readhesion [2]: showed a moderate increase
- metastases of parietal and visceral peritoneum [3]: clear evidence of metastases
- Liver Metastases (mice with metastases / mice) [4]: none of the 6 and 0/6
- Peritoneal Metastases (mice with metastases / mice) [4]: 2 of 6 and 2/6
